Eleven molecules from ChEMBL document CHEMBL1201862, “PubChem BioAssay data set” (2004) can be followed below.

Among the test systems are OVCAR-3; NCI-H23; SF-539; CAKI-1; IGROV-1; SNB-19; UACC-62; OVCAR-4; EKVX; SNB-75; KM12; M14; HOP-62; SR; U-251; A498; HCT-15; UACC-257; NCI-H522; MDA-N.
Common to all, as to test: inhibition of tumour cell growth, NCI panel, 48 h

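48-hour exposure; five concentrations; linearly interpolated endpoints. The concentration for 50% growth inhibition is given as GI50.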 The source made the active and inactive calls. Cut-off read from the data, not from the text of the source: active = GI50 up to about 1.1 µM and inactive = higher. Where only a bound is given, the exact number is not on record here.

`COC(=O)C1CCC(=O)N1/C(C)=N/NC(=O)Nc1ccc(Cl)c(Cl)c1` (stereo not given): the GI50 in the experiment with OVCAR-3 is > 100 µM (inactive); with NCI-H23, > 100 µM (inactive); in the experiment with SF-539, > 100 µM (inactive); with CAKI-1, 74.6 µM (inactive); in the experiment with IGROV-1, > 100 µM (inactive); in the experiment on SNB-19, > 100 µM (inactive). The GI50 was 10.5 µM (inactive) with UACC-62; > 100 µM (inactive) in the experiment on OVCAR-4; > 100 µM (inactive) in the experiment with EKVX; 65.3 µM (inactive) in the experiment with SNB-75; 98.4 µM (inactive) with KM12; > 100 µM (inactive) in the experiment with M14. For the same molecule, the GI50 in the experiment with HOP-62 is > 100 µM (inactive); with SR, > 100 µM (inactive); in the experiment on U-251 it was > 100 µM (inactive); in the experiment with A498, > 100 µM (inactive); with HCT-15, 14.4 µM; in the experiment with UACC-257 it was > 100 µM (inactive).

`COc1cc2c(cc1OC)-c1c(cnn1C1OC(COC(C)=O)C(OC(C)=O)C(OC(C)=O)C1OC(C)=O)CC2` (stereo not given): the GI50 in the experiment with OVCAR-3 is > 88.1 µM (inactive); with NCI-H23 it was > 100 µM (inactive); in the experiment on SF-539, > 100 µM (inactive); in the experiment with CAKI-1, > 100 µM (inactive); with IGROV-1, > 100 µM (inactive); in the experiment with SNB-19 it was > 100 µM (inactive). For the same molecule, the GI50 in the experiment on UACC-62 was > 100 µM (inactive); in the experiment on OVCAR-4, > 100 µM (inactive); in the experiment on EKVX, > 100 µM (inactive); in the experiment with NCI-H522, 18.7 µM (inactive); in the experiment with SNB-75, 48.9 µM (inactive); in the experiment with KM12, > 100 µM (inactive). In addition, the GI50 with M14 is > 100 µM (inactive); in the experiment on HOP-62 it was > 100 µM (inactive); with SR, 10.5 µM (inactive); with U-251, 34.1 µM (inactive); in the experiment on A498, > 100 µM (inactive); with HCT-15 it was more than 100 µM. For the same molecule, the GI50 in the experiment with UACC-257 was > 100 µM (inactive).

Consider `O=C(O)c1ccccc1C(=O)c1ccco1`, for which the GI50 with OVCAR-3, with NCI-H23, with SF-539, in the experiment with CAKI-1, with IGROV-1 and with SNB-19 was > 100 µM (inactive) throughout. Also, the GI50 in the experiment on UACC-62, in the experiment with OVCAR-4, in the experiment on EKVX, in the experiment on NCI-H522, with SNB-75 and with KM12 was > 100 µM (inactive) each time. Besides, the GI50 was > 100 µM (inactive) with M14; > 100 µM (inactive) with HOP-62; > 100 µM (inactive) in the experiment on SR; > 100 µM (inactive) in the experiment on U-251; > 100 µM (inactive) in the experiment with A498; more than 100 µM in the experiment on HCT-15. Also, the GI50 with UACC-257 is > 100 µM (inactive).

Regarding `COc1cc(/C=C/C2=C(C#N)C(=O)OC2(C)C)ccc1O`, the GI50 in the experiment with OVCAR-3, in the experiment on NCI-H23, in the experiment on CAKI-1, in the experiment on IGROV-1, in the experiment on SNB-19 and in the experiment on UACC-62 was > 100 µM (inactive) throughout. Further, the GI50 in the experiment with EKVX was > 100 µM (inactive); in the experiment with NCI-H522, 16.7 µM (inactive); in the experiment on SNB-75, 82.8 µM (inactive); in the experiment with KM12, 30.9 µM (inactive); with HOP-62, 43.6 µM (inactive); in the experiment on SR, 14.2 µM (inactive). Moreover, the GI50 is 17.4 µM (inactive) with U-251, > 100 µM (inactive) in the experiment with A498, 28 µM with HCT-15 and > 100 µM (inactive) in the experiment on UACC-257.

With `COC(=O)c1ccc(NCC2=C(Br)C(=O)C=CC2=O)cc1Cl`, the GI50 was 13.9 µM (inactive) with OVCAR-3; 21 µM (inactive) with NCI-H23; 16.8 µM (inactive) in the experiment on SF-539; 26.9 µM (inactive) with CAKI-1; 15.5 µM (inactive) in the experiment on IGROV-1; > 100 µM (inactive) with SNB-19. The GI50 was 18.8 µM (inactive) with UACC-62; 24.4 µM (inactive) in the experiment on OVCAR-4; 14.1 µM (inactive) in the experiment on EKVX; 6.43 µM (inactive) in the experiment with NCI-H522; 42.5 µM (inactive) in the experiment with SNB-75; 34.5 µM (inactive) in the experiment on KM12. The GI50 in the experiment on M14 was 18.2 µM (inactive); in the experiment on MDA-N, 16.9 µM (inactive); with U-251 it was 22.8 µM (inactive); with A498, > 100 µM (inactive); with HCT-15, 15.8 µM; with UACC-257 it was 23.8 µM (inactive).

Regarding `O=C1C2Cc3ccccc3CN2C(=O)N1CN1CCCCC1` (stereo not given), the GI50 in the experiment on OVCAR-3, with NCI-H23, in the experiment on SF-539, with CAKI-1, in the experiment with IGROV-1 and with SNB-19 was > 100 µM (inactive) each time. Moreover, the GI50 with UACC-62 is 78 µM (inactive); with OVCAR-4, > 100 µM (inactive); in the experiment on NCI-H522 it was > 100 µM (inactive); with KM12, > 100 µM (inactive); in the experiment with M14, > 100 µM (inactive); with HOP-62, > 100 µM (inactive). The GI50 with SR is 97.5 µM (inactive); in the experiment on U-251, > 100 µM (inactive); in the experiment with A498 it was > 100 µM (inactive); in the experiment with HCT-15, 43.6 µM.

For `CN(CCCCCl)P(=O)(OCC1=CC(=O)c2ccccc2C1=O)OC[C@H]1O[C@@H](n2cc(F)c(=O)[nH]c2=O)C[C@@H]1O` (stereo not given in full), the GI50 is 0.109 µM (active) in the experiment with OVCAR-3; 0.0532 µM (active) with NCI-H23; < 0.0244 µM (active) in the experiment on SF-539; < 0.0115 µM (active) with CAKI-1; 0.124 µM (active) in the experiment with IGROV-1; 0.0399 µM (active) with UACC-62. For the same molecule, the GI50 is 0.681 µM (active) with OVCAR-4; 3.18 µM (inactive) with EKVX; 0.239 µM (active) with NCI-H522; < 0.0176 µM (active) in the experiment on SNB-75; 3.64 µM (inactive) with KM12; 0.0897 µM (active) in the experiment on M14. In addition, the GI50 in the experiment with HOP-62 was 0.0415 µM (active); with MDA-N, 0.753 µM (active); in the experiment on HCT-15, 3.66 µM; in the experiment with UACC-257, 6.17 µM (inactive).

As for `CC(=O)O[C@H]1[C@@H]2OC(=O)[C@@](O)(CC3CCCO3)[C@@H]2CC(=O)[C@](C)(O)CC/C=C(\C)CCC[C@@H]1C` (stereo not given in full), the GI50 was 63.2 µM (inactive) in the experiment with OVCAR-3; 19.1 µM (inactive) with SF-539; 19.9 µM (inactive) with CAKI-1; 46.5 µM (inactive) with IGROV-1; > 100 µM (inactive) in the experiment with SNB-19; 67.3 µM (inactive) in the experiment on UACC-62. For the same molecule, the GI50 was 52.8 µM (inactive) in the experiment with OVCAR-4; 52.8 µM (inactive) in the experiment with EKVX; 25.8 µM (inactive) with NCI-H522; 97.5 µM (inactive) in the experiment on SNB-75; 67.6 µM (inactive) in the experiment on KM12; 40.4 µM (inactive) in the experiment on M14. Moreover, the GI50 with MDA-N is 20.6 µM (inactive); in the experiment with U-251 it was 69.8 µM (inactive); in the experiment on A498, > 100 µM (inactive); with HCT-15, 34.3 µM; in the experiment on UACC-257, 70.3 µM (inactive).

In the case of `COc1cc(CCCl)c(CC2=NCCc3cc(OC)c(OC)cc32)cc1OC`, the GI50 with OVCAR-3 is > 100 µM (inactive); in the experiment on NCI-H23 it was > 100 µM (inactive); with SF-539, 4.61 µM (inactive); with CAKI-1, 34 µM (inactive); with IGROV-1 it was 29.4 µM (inactive); with SNB-19, > 100 µM (inactive). In addition, the GI50 in the experiment with UACC-62 was 43.3 µM (inactive); with OVCAR-4, > 100 µM (inactive); in the experiment with EKVX it was 88.9 µM (inactive); in the experiment on SNB-75, > 100 µM (inactive); with KM12, 71.1 µM (inactive); with M14, 50.1 µM (inactive). Moreover, the GI50 was 20.8 µM (inactive) in the experiment on HOP-62; 70.1 µM (inactive) with MDA-N; 23 µM (inactive) in the experiment with SR; > 100 µM (inactive) in the experiment on U-251; > 100 µM (inactive) in the experiment with UACC-257.

`Nc1nnc(N)n1NC(=O)C(=O)Nc1ccc([N+](=O)[O-])cc1`: the GI50 with NCI-H23 is > 100 µM (inactive); with SF-539 it was > 100 µM (inactive); with CAKI-1, > 100 µM (inactive); with IGROV-1 it was > 100 µM (inactive); in the experiment on SNB-19 it was > 100 µM (inactive); in the experiment on UACC-62 it was 49.1 µM (inactive). In addition, the GI50 with OVCAR-4, with EKVX, with NCI-H522, in the experiment with SNB-75, in the experiment with KM12 and in the experiment with HOP-62 was > 100 µM (inactive) in each case. In addition, the GI50 in the experiment on SR was > 100 µM (inactive); in the experiment with U-251 it was > 100 µM (inactive); in the experiment on A498 it was > 100 µM (inactive); in the experiment with HCT-15, more than 100 µM; in the experiment on UACC-257, > 100 µM (inactive).

With `O=C(N/N=C/C=C/c1ccc([N+](=O)[O-])o1)c1ccc(Br)s1`, the GI50 in the experiment on OVCAR-3 was 16.1 µM (inactive); with NCI-H23 it was 14.9 µM (inactive); with SF-539 it was 26.8 µM (inactive); in the experiment with CAKI-1, 27.9 µM (inactive); in the experiment with IGROV-1, 6.76 µM (inactive); with SNB-19 it was 24 µM (inactive). For the same molecule, the GI50 in the experiment with UACC-62 is 23.2 µM (inactive); in the experiment with OVCAR-4, 18.9 µM (inactive); in the experiment with EKVX it was 31.2 µM (inactive); in the experiment with SNB-75, > 100 µM (inactive); in the experiment on KM12 it was 17.8 µM (inactive); in the experiment with M14, 20.4 µM (inactive). In addition, the GI50 in the experiment with HOP-62 is 51.2 µM (inactive); with MDA-N, 20.6 µM (inactive); in the experiment with U-251 it was 28.1 µM (inactive); in the experiment on A498, 32.1 µM (inactive); in the experiment on HCT-15 it was 13.2 µM.
